Patent US7872041B2, “Use of rotigotine for treating and preventing Parkinson's plus syndrome” (priority 2004, dated 2011)

How the values were obtained:
MPTP mouse model [1] = assay: Acute MPTP model, FluoroJade staining of degenerating neurons; type: in vivo, mice; details: for Number of degenerating neurons: FluoroJade staining
Experimental: The results set forth below in Table 2 indicate the number of acutely degenerating neurons in the MPTP mouse model shown with FluoroJade staining with and without treatment with a single administration of rotigotine:
To induce intoxication, mice were administered 80 mg/kg of the neurotoxin 1-methyl-4-phenyl-1,2,3,6-tetrahydro-pyridine (MPTP) (in portions of 20 mg/kg at two-hourly intervals) resulting in the degeneration of approximately 50-60% of the neurons in the substantia nigra. Approximately 16 hours previously, rotigotine was added in doses of 0.3, 1 or 3 mg/kg respectively as a so-called ‘slow-release formulation’ (see embodiment 2). Diffusion and absorption latencies mean that rotigotine is optimally available when MPTP is added. Animals that were only given the vehicle solution (see embodiment 2 without rotigotine HCl) served as controls. After 24 hours, the animals were sacrificed and the brains fixed. The brain sections were stained with FluoroJade for the identification of degenerating cells. Immunohistochemical marking of the tyrosine hydroxylase was used to identify dopaminergic neurons. […] The number of the degenerating neurons was approximately 50% lower after the application of rotigotine, which is further confirmation of the neuroprotective properties of the substance (Table 2).

MPTP mouse model [2] = assay: Subacute MPTP model, dopamine transporter density in the striatum; type: in vivo, mice
Experimental: To induce intoxication, mice were administered 80 mg/kg of the neurotoxin 1-methyl-4-phenyl-1,2,3,6-tetrahydro-pyridine (MPTP) (in portions of 20 mg/kg in two-hourly intervals, groups 3-6 in FIGS. 1 and 2) resulting in the degeneration of about 50-60% of the neurons of the substantia nigra (maximum degeneration in group 3 in FIGS. 1 and 2). Rotigotine was administered daily in doses of 0.3, 1 or 3 mg/kg respectively over 7 days as a so-called ‘slow-release formulation’ (see embodiment 2) (groups 4-6 in FIGS. 1 and 2). A group of MPTP-treated animals (group 3) was given rotigotine-vehicle solution (see embodiment 2 without rotigotine HCl) and served as a reference. The controls were groups 1, 2 and 7, whereby group 1 is not given any treatment, group 2 is treated with the vehicle-solutions for MPTP and rotigotine, and group 7 was exclusively given rotigotine. The animals were sacrificed on day 8, their brains removed and frozen. Frozen sections were incubated with 100 pm[^125I] PE21 ([^125I]-(E)-N(3-iodoprop-2-enyl)-2β-carboxymethyl-3β-(4′-methylphenyl)-nortropane) in a phosphate buffer, pH 7.4 in order to mark the quantity of dopamine transporters still present in the striatum as an indicator of the quantity of functioning nerve endings. […] This is clear evidence of the neuroprotective properties of the substance (FIG. 1 and 2).

[3] = test system: MPTP model in monkeys (macaques); assay: Progressive MPTP primate model, pilot study; type: in vivo
Experimental: In the MPTP model used, which reflects the progressive course of dopaminergic cell destruction in primates, monkeys (macaques) were injected with subthreshold toxic doses of MPTP over several days. The parkinsonian symptoms developed in the model over a period of approximately 2 weeks. As soon as a specific degree of damage was reached, daily injections of rotigotine were provided in a formulation giving rise to a continuous plasma level over a 24 hour period. The injections of MPTP were stopped as soon as the motor activity in the controls had reduced by a specific degree (approximately 5 days later). The animals' behavior was evaluated every day. […] At the end of rotigotine application or at the end of the wash-out phase, in each case one group of animals was sacrificed and the condition of the basal ganglia investigated histologically and biochemically. The density of the nerve endings in the striatum of the treated animals was much higher than it was in the untreated animals.

[4] = transdermal administration, WO 02/089777 and other authors; cited from earlier work

CCCN(CCc1cccs1)[C@H]1CCc2c(O)cccc2C1 [rotigotine, (−)5,6,7 ,8-tetrahydro-6-[propyl[2-(2-thienyl)ethyl]amino]-1-naphthol]
Number of degenerating neurons (MPTP mouse model [1]; MPTP intoxication + rotigotine 0.3 mg/kg, single administration): 66.7 | Number of degenerating neurons (MPTP mouse model [1]; MPTP intoxication + rotigotine 1.0 mg/kg, single administration): 76.8 | Number of degenerating neurons (MPTP mouse model [1]; MPTP intoxication + rotigotine 3.0 mg/kg, single administration): 34.9 | Number of degenerating neurons (MPTP mouse model [1]; MPTP-vehicle + rotigotine 3.0 mg/kg (no MPTP)): 3.8 | Number of degenerating neurons lower after application of rotigotine (MPTP mouse model [1]; acute MPTP model, versus MPTP without rotigotine): approximately 50% | Number of degenerating neurons in the mesencephalon (MPTP mouse model [1]; acute phase after MPTP, after administration of rotigotine): reduced | Staining of the tyrosine hydroxylase (dopaminergic neurons) (MPTP mouse model [1]; treated versus untreated animals, 24 hours after MPTP): did not identify any differences between the treated and untreated animals | Survival of the neurons and the nerve endings (MPTP mouse model [2]; 0.3, 1 or 3 mg/kg daily over 7 days, slow-release formulation): improves the survival of the neurons and the nerve endings in relation to the dose | Dopaminergic innervation of the striatum (density of the dopamine transporter) (MPTP mouse model [2]; subacute phase after MPTP): virtually completely retained or restored | Content of preproenkephalin ([3]; after the treatment and after the wash-out phase): tendency toward normalization | Density of the nerve endings in the striatum ([3]; treated versus untreated animals): much higher | Motor activity of the animals ([3]; under treatment with daily injections and in the following wash-out phase): significantly improved | UPDRS scores [4]: improvement
